# From article PMC9352556, “Glycogen synthase kinase homolog Rim11 regulates lipid synthesis through the phosphorylation of Pah1 phosphatidate phosphatase in yeast” (The Journal of Biological Chemistry, 2022)
# T1: Pah1 (Saccharomyces cerevisiae, UniProt P32567)
# T1 construct: unphosphorylated
# T1 sequence (P32567 1-862): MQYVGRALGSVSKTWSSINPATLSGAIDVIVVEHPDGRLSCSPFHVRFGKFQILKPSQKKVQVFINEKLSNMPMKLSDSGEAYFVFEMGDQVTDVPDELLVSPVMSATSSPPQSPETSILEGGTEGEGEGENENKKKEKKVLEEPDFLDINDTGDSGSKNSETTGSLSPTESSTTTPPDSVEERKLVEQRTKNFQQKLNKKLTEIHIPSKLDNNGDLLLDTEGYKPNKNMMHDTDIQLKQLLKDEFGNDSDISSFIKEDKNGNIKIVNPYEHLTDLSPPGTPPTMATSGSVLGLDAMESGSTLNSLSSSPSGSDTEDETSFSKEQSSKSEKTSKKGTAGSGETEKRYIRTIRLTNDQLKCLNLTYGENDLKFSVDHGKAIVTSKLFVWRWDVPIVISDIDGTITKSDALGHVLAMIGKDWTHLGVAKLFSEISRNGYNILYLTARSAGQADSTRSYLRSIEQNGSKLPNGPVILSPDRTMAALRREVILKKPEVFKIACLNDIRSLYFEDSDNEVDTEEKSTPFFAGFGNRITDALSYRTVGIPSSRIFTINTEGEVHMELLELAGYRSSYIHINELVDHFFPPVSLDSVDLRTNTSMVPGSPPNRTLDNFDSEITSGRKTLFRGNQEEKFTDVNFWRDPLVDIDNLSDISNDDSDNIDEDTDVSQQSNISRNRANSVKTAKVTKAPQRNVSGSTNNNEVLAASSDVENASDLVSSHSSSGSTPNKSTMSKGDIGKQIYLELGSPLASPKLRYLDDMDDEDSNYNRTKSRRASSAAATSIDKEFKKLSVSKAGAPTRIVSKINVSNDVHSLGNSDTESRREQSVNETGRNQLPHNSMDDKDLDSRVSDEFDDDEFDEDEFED
# B1: Rim11 (Saccharomyces cerevisiae S288C) (protein)
# chain: MNIQSNNSPNLSNNIVSKQVYYAHPPPTIDPNDPVQISFPTTEVVGHGSFGVVFATVIQETNEKVAIKKVLQDKRFKNRELEIMKMLSHINIIDLKYFFYERDSQDEIYLNLILEYMPQSLYQRLRHFVHQRTPMSRLEIKYYMFQLFKSLNYLHHFANVCHRDIKPQNLLVDPETWSLKLCDFGSAKQLKPTEPNVSYICSRYYRAPELIFGATNYTNQIDIWSSGCVMAELLLGQPMFPGESGIDQLVEIIKILGTPSKQEICSMNPNYMEHKFPQIKPIPLSRVFKKEDDQTVEFLADVLKYDPLERFNALQCLCSPYFDELKLDDGKINQITTDLKLLEFDENVELGHLSPDELSSVKKKLYPKSK
# notes: purified from S. cerevisiae (pSK001, pYES2); endogenously phosphorylated (Tyr199)
# Assays:
# Pah1 = target: T1, Pah1; experiment: release of […] from […]PA, Triton X-100/PA mixed micelles; assay type: biochemical; settings: unphosphorylated Pah1; surface concentration of PA in micelles; cooperative, n = 3.4; 1 mM MgCl2, pH 7.5, 30 °C; labelled compound
# purified protein = substrate: Nc1ncnc2c1ncn2[C@@H]1O[C@H](COP(=O)(O)OP(=O)(O)OP(=O)(O)O)[C@@H](O)[C@H]1O; experiment: purified protein; assay type: biochemical, Saccharomyces cerevisiae; settings: co-substrate 0.25 μM E. coli-expressed Pah1, 10 mM MgCl2, pH 7.5, 30 °C, labelled compound
Molecule,Km (Pah1),Km (purified protein)
phosphatidate,4.2 mol %,–
B1,–,30 µM
